Results as given in US20080227797A1, “Pyridopyrimidine Derivatives as Pde4 Inhibitors for the Treatment of Inflammatory and Immune Diseases” (ASTRAZENECA AB, priority 2005, published 2008).

Target: recombinant Human Phosphodiesterase B2 (PDE4B2) (Homo sapiens, UniProt Q07343)
Test: Human Phosphodiesterase B2 Alpha Screen Assay
Type: biochemical
Conditions: cAMP substrate, Alpha Screen cAMP kit, 60 minutes at room temperature
Procedure: Human Phosphodiesterase B2 Alpha Screen Assay
The assay uses recombinant Human Phosphodiesterase B2 (PDE4B2) produced in house (PrAZL0133), stored at −20° C. The substrate uses cAMP, part of the Alpha Screen cAMP kit (Perkin Elmer, Cat# 6760625M), stored at 4° C. The Alpha Screen kit also includes biotinylated cAMP, acceptor and donor beads.
The assay additions were as follows: Test compounds and controls were added to white 384-well flat-bottom plates (Greiner, Cat# 781075), 0.2 μl in 100% DMSO, followed by 10 μl PDE4B2 in reaction buffer. The reaction buffer constitution was: 50 mM Tris (pH 7.5), 8.3 mM MgCl2, 1.7 mM EGTA and 0.01% (w/v) Brij®35. The enzyme and the compounds were incubated at room temperature for 15 minutes. Then 10 μl cAMP in reaction buffer was added. The assay was stopped after 60 minutes incubation at room temperature by adding 10 μl acceptor beads in detection buffer with 40 mM EDTA. The detection buffer constitution was: 5 mM Tris (pH 7.5), 0.1% (w/v) BSA and 0.1% (v/v) Tween 20. This addition followed by an addition of 10 μl donor beads in detection buffer, with biotinylated cAMP. The plates were then incubated, dark at room temperature, for 5 hours followed by measurement on a Fusion™-α analyser. IC50 values (presented in Table 1) were determined using Xlfit curve fitting using model 205.

Sequence of recombinant Human Phosphodiesterase B2 (PDE4B2) (Q07343 1-564 isoform Q07343-2): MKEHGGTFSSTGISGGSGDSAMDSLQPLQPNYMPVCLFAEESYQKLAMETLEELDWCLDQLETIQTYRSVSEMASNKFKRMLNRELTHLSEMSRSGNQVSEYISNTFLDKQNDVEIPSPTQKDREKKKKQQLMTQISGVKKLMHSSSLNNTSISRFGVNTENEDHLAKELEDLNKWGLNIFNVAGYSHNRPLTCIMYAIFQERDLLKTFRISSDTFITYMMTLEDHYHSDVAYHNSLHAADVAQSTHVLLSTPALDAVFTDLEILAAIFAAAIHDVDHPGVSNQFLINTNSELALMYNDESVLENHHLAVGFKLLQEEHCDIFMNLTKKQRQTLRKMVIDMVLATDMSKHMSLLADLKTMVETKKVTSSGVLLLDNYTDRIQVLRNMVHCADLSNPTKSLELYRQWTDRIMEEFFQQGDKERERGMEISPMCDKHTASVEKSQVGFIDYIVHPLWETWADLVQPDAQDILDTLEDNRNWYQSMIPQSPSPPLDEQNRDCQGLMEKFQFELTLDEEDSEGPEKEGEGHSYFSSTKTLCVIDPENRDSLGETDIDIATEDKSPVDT

SMILES	IC50 [nM]
COc1ccc(C(=O)N[C@H]2CC[C@@H](n3c(=O)c4cc(F)cnc4n(-c4ccc(F)c(F)c4)c3=O)CC2)c(O)c1 [Example 19, N-{cis-4-[1-(3,4-difluorophenyl)-6-fluoro-2,4-dioxo-1,4-dihydropyrido[2,3-d]pyrimidin-3(2H)-yl]cyclohexyl}-2-hydroxy-4-methoxybenzamide]	2
O=C(N[C@H]1CC[C@@H](n2c(=O)c3cc(F)cnc3n(-c3ccc(F)c(F)c3)c2=O)CC1)c1cc(F)ccc1O [Example 20, N-{cis-4-[1-(3,4-difluorophenyl)-6-fluoro-2,4-dioxo-1,4-dihydropyrido[2,3-d]pyrimidin-3(2H)-yl]cyclohexyl}-5-fluoro-2-hydroxybenzamide]	3.6
CC(C)C[C@H](O)C(=O)N[C@H]1CC[C@@H](n2c(=O)c3cc(F)cnc3n(-c3ccc(F)c(F)c3)c2=O)CC1 [Example 21, (2S)-N-{cis-4-[1-(3,4-difluorophenyl)-6-fluoro-2,4-dioxo-1,4-dihydropyrido[2,3-d]pyrimidin-3(2H)-yl]cyclohexyl}-2-hydroxy-4-methylpentanamide]	3.6
O=C(N[C@H]1CC[C@@H](n2c(=O)c3cc(F)cnc3n(-c3ccc(F)c(F)c3)c2=O)CC1)[C@H](O)C1CCCCC1 [Example 22, (2R)-2-cyclohexyl-N-{cis-4-[1-(3,4-difluorophenyl)-6-fluoro-2,4-dioxo-1,4-dihydropyrido[2,3-d]pyrimidin-3(2H)-yl]cyclohexyl}-2-hydroxyacetamide]	1
COC(=O)CCC(=O)N[C@H]1CC[C@@H](n2c(=O)c3cc(F)cnc3n(-c3ccc(F)c(F)c3)c2=O)CC1 [Example 23, methyl 4-({cis-4-[1-(3,4-difluorophenyl)-6-fluoro-2,4-dioxo-1,4-dihydropyrido[2,3-d]pyrimidin-3(2H)-yl]cyclohexyl}amino)-4-oxobutanoate]	3.8
O=C(CNC(=O)c1ccccc1O)N[C@H]1CC[C@@H](n2c(=O)c3cc(F)cnc3n(-c3ccc(F)c(F)c3)c2=O)CC1 [Example 24, N-[2-({cis-4-[1-(3,4-difluorophenyl)-6-fluoro-2,4-dioxo-1,4-dihydropyrido[2,3-d]pyrimidin-3(2H)-yl]cyclohexyl}amino)-2-oxoethyl]-2-hydroxybenzamide]	0.6
COC(=O)c1ccc(C(=O)N[C@H]2CC[C@@H](n3c(=O)c4cc(F)cnc4n(-c4ccc(F)c(F)c4)c3=O)CC2)cc1 [Example 25, methyl 4-[({cis-4-[1-(3,4-difluorophenyl)-6-fluoro-2,4-dioxo-1,4-dihydropyrido[2,3-d]pyrimidin-3(2H)-yl]cyclohexyl}amino)carbonyl]benzoate]	1.9
COc1ccc(C(=O)N[C@H]2CC[C@@H](n3c(=O)c4cc(F)cnc4n(-c4ccc(F)c(F)c4)c3=O)CC2)cc1O [Example 26, N-{cis-4-[1-(3,4-difluorophenyl)-6-fluoro-2,4-dioxo-1,4-dihydropyrido[2,3-d]pyrimidin-3(2H)-yl]cyclohexyl}-3-hydroxy-4-methoxybenzamide]	1
COC(=O)CCCC(=O)N[C@H]1CC[C@@H](n2c(=O)c3cc(F)cnc3n(-c3ccc(F)c(F)c3)c2=O)CC1 [Example 27, methyl 5-({cis-4-[1-(3,4-difluorophenyl)-6-fluoro-2,4-dioxo-1,4-dihydropyrido[2,3-d]pyrimidin-3(2H)-yl]cyclohexyl}amino)-5-oxopentanoate]	1.7
O=C(Cc1cccc(O)c1)N[C@H]1CC[C@@H](n2c(=O)c3cc(F)cnc3n(-c3ccc(F)c(F)c3)c2=O)CC1 [Example 28, N-{cis-4-[1-(3,4-difluorophenyl)-6-fluoro-2,4-dioxo-1,4-dihydropyrido[2,3-d]pyrimidin-3(2H)-yl]cyclohexyl}-2-(3-hydroxyphenyl)acetamide]	0.9
COC(=O)c1cccc(C(=O)N[C@H]2CC[C@@H](n3c(=O)c4cc(F)cnc4n(-c4ccc(F)c(F)c4)c3=O)CC2)c1 [Example 29, methyl 3-[({cis-4-[1-(3,4-difluorophenyl)-6-fluoro-2,4-dioxo-1,4-dihydropyrido[2,3-d]pyrimidin-3(2H)-yl]cyclohexyl}amino)carbonyl]benzoate]	1.2
O=C(N[C@H]1CC[C@@H](n2c(=O)c3cc(F)cnc3n(-c3ccc(F)c(F)c3)c2=O)CC1)c1c(O)cccc1F [Example 30, N-{cis-4-[1-(3,4-difluorophenyl)-6-fluoro-2,4-dioxo-1,4-dihydropyrido[2,3-d]pyrimidin-3(2H)-yl]cyclohexyl}-2-fluoro-6-hydroxybenzamide]	1.1
O=C(CCc1cccc(O)c1)N[C@H]1CC[C@@H](n2c(=O)c3cc(F)cnc3n(-c3ccc(F)c(F)c3)c2=O)CC1 [Example 31, N-{cis-4-[1-(3,4-difluorophenyl)-6-fluoro-2,4-dioxo-1,4-dihydropyrido[2,3-d]pyrimidin-3(2H)-yl]cyclohexyl}-3-(3-hydroxyphenyl)propanamide]	1.5
O=C(N[C@H]1CC[C@@H](n2c(=O)c3cc(F)cnc3n(-c3ccc(F)c(F)c3)c2=O)CC1)c1n[nH]c2ccccc12 [Example 32, N-{cis-4-[1-(3,4-difluorophenyl)-6-fluoro-2,4-dioxo-1,4-dihydropyrido[2,3-d]pyrimidin-3(2H)-yl]cyclohexyl}-1H-indazole-3-carboxamide]	0.6
O=C(N[C@H]1CC[C@@H](n2c(=O)c3cc(F)cnc3n(-c3ccc(F)c(F)c3)c2=O)CC1)c1cn2ccccc2n1 [Example 33, N-{cis-4-[1-(3,4-difluorophenyl)-6-fluoro-2,4-dioxo-1,4-dihydropyrido[2,3-d]pyrimidin-3(2H)-yl]cyclohexyl}imidazo[1,2-a]pyridine-2-carboxamide]	0.5
CSc1cccc(-n2c(=O)n([C@H]3CC[C@@H](NC(=O)c4cc(Cl)ccc4O)CC3)c(=O)c3cc(F)cnc32)c1 [Example 34, 5-chloro-N-{cis-4-[6-fluoro-1-[3-(methylthio)phenyl]-2,4-dioxo-1,4-dihydropyrido[2,3-d]pyrimidin-3(2H)-yl]cyclohexyl}-2-hydroxybenzamide]	3.2
CSc1cccc(-n2c(=O)n([C@H]3CC[C@@H](NC(=O)c4cc(C)ccc4O)CC3)c(=O)c3cc(F)cnc32)c1 [Example 35, N-{cis-4-[6-fluoro-1-[3-(methylthio)phenyl]-2,4-dioxo-1,4-dihydropyrido[2,3-d]pyrimidin-3(2H)-yl]cyclohexyl}-2-hydroxy-5-methylbenzamide]	1.4
CSc1cccc(-n2c(=O)n([C@H]3CC[C@@H](NC(=O)c4cc(CO)ccc4O)CC3)c(=O)c3cc(F)cnc32)c1 [Example 36, N-{cis-4-[6-fluoro-1-[3-(methylthio)phenyl]-2,4-dioxo-1,4-dihydropyrido[2,3-d]pyrimidin-3(2H)-yl]cyclohexyl}-2-hydroxy-5-(hydroxymethyl)benzamide]	2.9
CSc1cccc(-n2c(=O)n([C@H]3CC[C@@H](NC(=O)[C@H](O)c4ccccc4)CC3)c(=O)c3cc(F)cnc32)c1 [Example 37, (2R)-N-{cis-4-[6-fluoro-1-[3-(methylthio)phenyl]-2,4-dioxo-1,4-dihydropyrido[2,3-d]pyrimidin-3(2H)-yl]cyclohexyl}-2-hydroxy-2-phenylacetamide]	0.5
CSc1cccc(-n2c(=O)n([C@H]3CC[C@@H](NC(=O)[C@@H](O)c4ccccc4)CC3)c(=O)c3cc(F)cnc32)c1 [Example 38, (2S)-N-{cis-4-[6-fluoro-1-[3-(methylthio)phenyl]-2,4-dioxo-1,4-dihydropyrido[2,3-d]pyrimidin-3(2H)-yl]cyclohexyl}-2-hydroxy-2-phenylacetamide]	< 16
CSc1cccc(-n2c(=O)n([C@H]3CC[C@@H](NC(=O)CO)CC3)c(=O)c3cc(F)cnc32)c1 [Example 39, N-{cis-4-[6-fluoro-1-[3-(methylthio)phenyl]-2,4-dioxo-1,4-dihydropyrido[2,3-d]pyrimidin-3(2H)-yl]cyclohexyl}-2-hydroxyacetamide]	23.7
CS(=O)(=O)c1cccc(-n2c(=O)n([C@H]3CC[C@@H](NC(=O)c4cc(Cl)ccc4O)CC3)c(=O)c3cc(F)cnc32)c1 [Example 40, 5-chloro-N-{cis-4-[6-fluoro-1-[3-(methylsulfonyl)phenyl]-2,4-dioxo-1,4-dihydropyrido[2,3-d]pyrimidin-3(2H)-yl]cyclohexyl}-2-hydroxybenzamide]	90.6
CS(=O)(=O)c1cccc(-n2c(=O)n([C@H]3CC[C@@H](NC(=O)c4cc(CO)ccc4O)CC3)c(=O)c3cc(F)cnc32)c1 [Example 41, N-{cis-4-[6-fluoro-1-[3-(methylsulfonyl)phenyl]-2,4-dioxo-1,4-dihydropyrido[2,3-d]pyrimidin-3(2H)-yl]cyclohexyl}-2-hydroxy-5-(hydroxymethyl)benzamide]	51.9
CS(=O)(=O)c1cccc(-n2c(=O)n([C@H]3CC[C@@H](NC(=O)[C@H](O)c4ccccc4)CC3)c(=O)c3cc(F)cnc32)c1 [Example 42, (2R)-N-{cis-4-[6-fluoro-1-[3-(methylsulfonyl)phenyl]-2,4-dioxo-1,4-dihydropyrido[2,3-d]pyrimidin-3(2H)-yl]cyclohexyl}-2-hydroxy-2-phenylacetamide]	< 16
